Molecular target: T1, Prostacyclin Receptors (IP Receptors) of Human Thrombocyte Membranes (Homo sapiens, UniProt P43119)
T1 construct: Thrombocyte membranes are obtained by centrifuging 50 ml of human blood; tissue Maco Pharma, Langen (buffy coats); host or cells: human thrombocyte (platelet) membranes prepared from human blood
Assay: Binding to prostacyclin receptors (IP receptors) of human thrombocyte membranes, 3H-Iloprost displacement
Details: 3 nM 3H-Iloprost, 60 min, room temperature
Protocol: B-1. Studies of Binding to Prostacyclin Receptors (IP Receptors) of Human Thrombocyte Membranes
Thrombocyte membranes are obtained by centrifuging 50 ml of human blood (Buffy coats with CDP Stabilizer, from Maco Pharma, Langen) for 20 min at 160×g. Remove the supernatant (platelet-rich plasma, PRP) and then centrifuge again at 2000×g for 10 min at room temperature. Resuspend the sediment in 50 mM tris(hydroxymethyl)aminomethane, which has been adjusted to a pH of 7.4 with 1 N hydrochloric acid, and store at −20° C. overnight. On the next day, centrifuge the suspension at 80 000×g and 4° C. for 30 min. Discard the supernatant. […]
For the binding test, incubate 3 nM ^3H-Iloprost (592 GBq/mmol, from AmershamBioscience) for 60 min with 300-1000 μg/ml of human thrombocyte membranes per charge (max. 0.2 ml) in the presence of the test substances at room temperature. […] After adding Ultima Gold Scintillator, quantify the radioactivity bound to the membranes using a scintillation counter. The nonspecific binding is defined as radioactivity in the presence of 1 μM Iloprost (from Cayman Chemical, Ann Arbor) and is as a rule <25% of the bound total radioactivity. The binding data (IC50 values) are determined using the program GraphPad Prism Version 3.02.

T1 sequence (P43119 whole entry): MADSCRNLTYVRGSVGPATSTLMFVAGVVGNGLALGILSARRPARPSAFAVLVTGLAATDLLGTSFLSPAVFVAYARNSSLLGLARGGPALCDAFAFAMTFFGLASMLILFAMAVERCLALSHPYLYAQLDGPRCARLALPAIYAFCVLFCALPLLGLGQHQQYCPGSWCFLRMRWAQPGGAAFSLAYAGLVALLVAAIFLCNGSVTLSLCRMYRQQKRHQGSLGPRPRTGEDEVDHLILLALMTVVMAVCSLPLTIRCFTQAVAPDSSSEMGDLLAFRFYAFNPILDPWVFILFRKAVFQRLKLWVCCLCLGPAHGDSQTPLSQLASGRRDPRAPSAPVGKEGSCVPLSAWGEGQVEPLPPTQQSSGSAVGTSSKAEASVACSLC

Structure (SMILES)	IC50 [nM]
COc1ccc(-c2c(-c3ccccc3)cn3ncnc(NCCCCCC(=O)O)c23)cc1 [Example 3]	636
COc1ccc(-c2c(-c3ccccc3)cn3ncnc(O[C@H](C)CCCCC(=O)O)c23)cc1 [Example 4, (6R)-6-{[5-(4-methoxyphenyl)-6-phenylpyrrolo[2,1-f][1,2,4]triazin-4-yl]oxy}heptanoic acid]	224
